Assay results reported in publication PMC8698791, “Identification, Synthesis, Conformation and Activity of an Insulin-like Peptide from a Sea Anemone” (Biomolecules, 2021).
Positions of bridges follow the written chain, without caps; N, C: chain ends. Chains are numbered I, II in the order given. No end group written: not given here.

Columns and labels:
rNaV1.4 = assay: Two-electrode voltage-clamp on Xenopus oocytes expressing NaV1.4; assay type: cell-based, rat; settings: 8 µM peptide, Xenopus laevis oocytes, 18–22 °C, n ≥ 3
Description: (§1) For the expression of KV channels (mammalian rKV1.2, hKV1.3, rKV2.1, hKV3.1, rKV4.2, hKV7.2/hKV7.3, hKV10.1, hERG and Shaker IR from the fruit fly Drosophila melanogaster), NaV channels (mammalian rNaV1.2, rNaV1.3, rNaV1.4, hNaV1.5, rNaV1.6, hNaV1.7, BgNaV from the cockroach Blattella germanica, as well as the auxiliary subunits rβ1, hβ1), and the hCaV3.1 channel in Xenopus oocytes, the linearized plasmids were transcribed using the T7 or SP6 mMESSAGE-mMACHINE transcription kit (Ambion, Carlsbad, CA, USA). The harvesting of stage V–VI oocytes from an anaesthetized female Xenopus laevis frog was described previously and was in compliance with the regulations of the European Union (EU) concerning the welfare of laboratory animals as declared in Directive 2010/63/EU. The use of X. laevis oocytes was approved by the Animal Ethics Committee of the KU Leuven with the licence number P186/2019. […]
(§2) Two-electrode voltage-clamp recordings were performed at room temperature (18–22 °C) using a Geneclamp 500 amplifier (Molecular Devices, Downingtown, PA, USA) controlled by a pClamp data acquisition system (Axon Instruments, Union City, CA, USA). Whole cell currents from oocytes were recorded 1–7 days after injection. […]

human IGF-1R = molecular target: T1, human IGF-1R (Homo sapiens, UniProt P08069); assay: Competition binding assay with europium-labelled IGF-I on solubilized, immunocaptured IGF-1R; settings: 16 h at 4 °C, n = 2 assays
T1 construct: expressed in transfected cells; host or cells: P6 cells (BALB/c3T3 mouse fibroblasts overexpressing IGF-IR)
Protocol: (§3) IGF-IR and IR-B were solubilized from cells using lysis buffer (20 mM HEPES, 150 mM NaCl, 1.5 mM MgCl2, 10% (v/v) glycerol, 1% (v/v) Triton X-100, 1 mM EGTA (pH 7.5)) for 1 h at 4 °C, and lysates were centrifuged for 10 min at 3500 rpm. Solubilized IGF-1R or IR-B (100 µL) was used to coat each well of a white Greiner Lumitrac 600 plate previously coated with 24–31 anti-human IGF-1R antibody or 83-7 anti-human IR antibody. […] Wells were washed three times with 20 mM Tris, 150 mM NaCl, 0.1% (v/v) Tween 20, and then DELFIA enhancement solution (100 µL) was added. Time-resolved fluorescence was measured with 340 nm excitation and 612 nm emission filters using a Victor X4, 2030 Multilabel Reader (Perkin Elmer). All assays were repeated at least 3 times with 3 technical replicates each, except for the IlO1_i1 peptide binding IGF-IR, where 2 assays were conducted. Mean IC50 values were calculated using the statistical software package Prism v9.0.0 (GraphPad Software) after curve fitting with a nonlinear regression (one-site) model.

rKV1.2 = assay: Two-electrode voltage-clamp on Xenopus oocytes expressing KV1.2; assay type: cell-based, rat; settings: 8 µM peptide, Xenopus laevis oocytes, 18–22 °C, n ≥ 3
Description: as §1, §2

hKV3.1 = assay: Two-electrode voltage-clamp on Xenopus oocytes expressing KV3.1; assay type: cell-based, human; settings: 8 µM peptide, Xenopus laevis oocytes, 18–22 °C, n ≥ 3
Description: as §1, §2

KV11.1 (hERG) = assay: Two-electrode voltage-clamp on Xenopus oocytes expressing KV11.1 (hERG); assay type: cell-based; settings: human, Xenopus laevis oocytes expressing KV11.1 (hERG), pH 7.4, 8 µM peptide, 18–22 °C, n ≥ 3, read-out: Inhibitory activity on KV11.1 (hERG) current
Description: as §1, §2

[1] = molecular target: T2, human insulin receptor isoform B (IR-B) (Homo sapiens, UniProt P06213); assay: Competition binding assay with europium-labelled insulin on solubilized, immunocaptured IR-B; settings: even at 10^−5 M concentration; 16 h at 4 °C, n ≥ 3
T2 construct: expressed in transfected cells; host or cells: IR-B cells (IGF-IR null mouse fibroblasts overexpressing human IR-B)
Protocol: as §3

hKV1.3 = assay: Two-electrode voltage-clamp on Xenopus oocytes expressing KV1.3; assay type: cell-based, human; settings: 8 µM peptide, Xenopus laevis oocytes, 18–22 °C, n ≥ 3
Description: as §1, §2

T2 sequence (P06213 28-758 limits assumed): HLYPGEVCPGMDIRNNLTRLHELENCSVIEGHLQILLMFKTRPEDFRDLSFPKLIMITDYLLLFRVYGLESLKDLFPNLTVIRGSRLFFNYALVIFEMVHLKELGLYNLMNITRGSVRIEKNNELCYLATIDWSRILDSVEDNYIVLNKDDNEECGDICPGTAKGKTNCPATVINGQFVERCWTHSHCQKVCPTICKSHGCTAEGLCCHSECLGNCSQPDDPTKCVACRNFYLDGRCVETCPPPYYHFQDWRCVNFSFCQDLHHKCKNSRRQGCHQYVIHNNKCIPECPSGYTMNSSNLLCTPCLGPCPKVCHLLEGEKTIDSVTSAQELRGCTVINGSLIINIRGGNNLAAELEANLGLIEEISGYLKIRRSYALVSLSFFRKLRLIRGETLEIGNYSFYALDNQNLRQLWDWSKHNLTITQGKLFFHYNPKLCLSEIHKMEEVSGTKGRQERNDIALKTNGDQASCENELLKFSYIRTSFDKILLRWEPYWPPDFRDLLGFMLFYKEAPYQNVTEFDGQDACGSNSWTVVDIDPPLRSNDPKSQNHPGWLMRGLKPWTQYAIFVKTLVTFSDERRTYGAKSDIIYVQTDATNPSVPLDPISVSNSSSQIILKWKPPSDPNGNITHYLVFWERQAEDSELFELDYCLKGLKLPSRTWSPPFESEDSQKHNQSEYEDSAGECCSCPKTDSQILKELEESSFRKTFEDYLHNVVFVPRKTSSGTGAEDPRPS
T2 sequence (P06213 763-1382 partner limits assumed): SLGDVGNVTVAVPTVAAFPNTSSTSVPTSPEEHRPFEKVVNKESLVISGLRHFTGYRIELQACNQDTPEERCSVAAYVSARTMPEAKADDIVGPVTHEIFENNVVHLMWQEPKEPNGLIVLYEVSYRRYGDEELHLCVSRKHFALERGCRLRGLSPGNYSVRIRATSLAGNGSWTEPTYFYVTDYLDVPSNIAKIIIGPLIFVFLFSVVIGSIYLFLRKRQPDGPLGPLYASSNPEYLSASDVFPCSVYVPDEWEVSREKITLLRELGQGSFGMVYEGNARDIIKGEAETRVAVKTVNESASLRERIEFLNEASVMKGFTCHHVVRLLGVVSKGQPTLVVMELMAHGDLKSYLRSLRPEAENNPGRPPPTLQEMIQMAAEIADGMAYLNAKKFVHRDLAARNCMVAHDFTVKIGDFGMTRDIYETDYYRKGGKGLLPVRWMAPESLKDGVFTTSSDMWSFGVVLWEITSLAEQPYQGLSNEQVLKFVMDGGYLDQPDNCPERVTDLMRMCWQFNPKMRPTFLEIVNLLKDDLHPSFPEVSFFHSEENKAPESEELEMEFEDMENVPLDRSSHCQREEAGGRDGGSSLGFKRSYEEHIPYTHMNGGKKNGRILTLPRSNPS
T1 sequence (P08069 31-736 limits assumed): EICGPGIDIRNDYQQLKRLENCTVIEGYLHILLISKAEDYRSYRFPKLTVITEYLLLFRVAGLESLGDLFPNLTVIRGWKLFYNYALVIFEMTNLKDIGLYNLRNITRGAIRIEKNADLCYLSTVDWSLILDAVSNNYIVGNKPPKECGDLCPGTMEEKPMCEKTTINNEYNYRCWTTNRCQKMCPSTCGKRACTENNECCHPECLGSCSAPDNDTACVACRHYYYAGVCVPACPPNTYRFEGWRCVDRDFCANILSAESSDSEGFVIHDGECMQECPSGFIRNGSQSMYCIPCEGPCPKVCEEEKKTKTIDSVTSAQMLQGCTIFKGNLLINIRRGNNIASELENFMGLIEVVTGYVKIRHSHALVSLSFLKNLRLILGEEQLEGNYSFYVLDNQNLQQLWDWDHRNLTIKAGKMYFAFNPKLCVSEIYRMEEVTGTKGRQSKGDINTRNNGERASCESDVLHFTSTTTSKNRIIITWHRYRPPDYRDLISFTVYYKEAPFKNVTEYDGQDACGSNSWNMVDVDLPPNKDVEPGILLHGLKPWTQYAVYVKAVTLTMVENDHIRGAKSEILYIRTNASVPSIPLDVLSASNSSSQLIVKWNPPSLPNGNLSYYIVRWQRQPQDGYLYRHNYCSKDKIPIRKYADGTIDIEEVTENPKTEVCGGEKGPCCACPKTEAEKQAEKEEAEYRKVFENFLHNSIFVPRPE
T1 sequence (P08069 741-1367 partner limits assumed): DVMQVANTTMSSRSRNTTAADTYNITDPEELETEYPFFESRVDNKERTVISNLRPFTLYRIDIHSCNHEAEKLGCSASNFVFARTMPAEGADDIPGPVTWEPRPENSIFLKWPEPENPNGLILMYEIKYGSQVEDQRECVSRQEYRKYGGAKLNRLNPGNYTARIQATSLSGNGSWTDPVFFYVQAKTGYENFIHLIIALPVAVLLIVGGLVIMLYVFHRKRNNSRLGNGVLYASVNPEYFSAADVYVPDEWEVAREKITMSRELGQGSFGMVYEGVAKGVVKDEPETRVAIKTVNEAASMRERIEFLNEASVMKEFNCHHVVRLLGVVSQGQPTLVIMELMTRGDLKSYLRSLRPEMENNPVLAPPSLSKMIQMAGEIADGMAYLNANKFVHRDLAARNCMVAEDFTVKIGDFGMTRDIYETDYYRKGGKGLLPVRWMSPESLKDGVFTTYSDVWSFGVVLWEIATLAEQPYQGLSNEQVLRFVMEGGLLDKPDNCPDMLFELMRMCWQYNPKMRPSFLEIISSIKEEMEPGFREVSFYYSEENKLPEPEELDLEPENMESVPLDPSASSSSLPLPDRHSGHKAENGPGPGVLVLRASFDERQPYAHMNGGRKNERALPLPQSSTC

I: INESPQTNIDYRICGDQITQKYTELCGNPAAG / II: TDIVEECCAEGCKAEEVKEYCI (disulfide I:14-II:8, I:26-II:21, II:7-II:12) [IlO1_i1]
Inhibitory activity on NaV 1.4 current (rNaV1.4): 14.2 ± 2.2% | Ability to compete with europium-labelled IGF-I binding to the IGF-1R (human IGF-1R): did not compete | Inhibitory activity on KV1.2 current (rKV1.2): 3.6 ± 1.9% | Inhibitory activity on KV3.1 current (hKV3.1): 12.7 ± 2.6% | inhibition at 8 µM (KV11.1 (hERG)): 30.5 ± 1.6% | Ability to compete with europium-labelled insulin bound to IR-B [1]: unable to compete | Inhibitory activity on KV1.3 current (hKV1.3): 11.9 ± 0.9%
